Data: patent EP4603105A1, “PHARMACEUTICAL COMPOSITION CONTAINING CYCLIC COMPOUND HAVING SELECTIVE KRAS INHIBITORY EFFECT AGAINST HRAS AND NRAS” (CHUGAI SEIYAKU KABUSHIKI KAISHA, priority 2022, dated 2024)
*1 amine or outer side, *2 acyl side, *3 side chain or, on linkers, in order; H or OH if unused. Where a SMILES comes first, the peptide text is derived from it. Bridges are numbered along the chain shown (N, C = ends). [ ]: non-standard residue; d: D form. The star is where a group is joined. hPhe(3-Cl-4-CF3) = N[C@@H](CCc1ccc(C(F)(F)F)c(Cl)c1)C(=O)O; X5 = Cc1ccc(C[C@@H](C(=O)[*:2])N(CCC(C)(C)C)[*:1])cc1; NMeGly(cPent) = CN[C@H](C(=O)O)C1CCCC1; NMeD = CN[C@@H](CC(=O)O)C(=O)O; NMeL = CN[C@@H](CC(C)C)C(=O)O; Morpholide = C1CN(*)CCO1; NMeA = CN[C@@H](C)C(=O)O; Ac5c = NC1(C(=O)O)CCCC1; Aze = O=C(O)[C@@H]1CCN1; Sar = CNCC(=O)O

Legend:
[1] = biological target: GDP-bound KRAS wild-type protein (Homo sapiens, UniProt P01116); assay: Binding to KRAS by surface plasmon resonance (SPR), dissociation constant KD
GDP-bound KRAS wild-type protein, sequence (P01116 1-188 isoform P01116-2): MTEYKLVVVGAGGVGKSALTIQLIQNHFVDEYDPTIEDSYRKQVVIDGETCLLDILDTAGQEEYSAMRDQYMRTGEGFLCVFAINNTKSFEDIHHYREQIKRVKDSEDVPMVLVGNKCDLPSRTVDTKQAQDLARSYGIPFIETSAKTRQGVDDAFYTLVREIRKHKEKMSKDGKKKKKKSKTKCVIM
In short: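 Affinity is measured by surface plasmon resonance at 30°C against captured, GDP-loaded RAS carrying a biotinylated Avi tag. Compounds are titrated by single-cycle kinetics, and KD comes from a 1:1 fit.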

[2] = biological target: GDP-bound NRAS wild-type protein (Homo sapiens, UniProt P01111); assay: Binding to NRAS by surface plasmon resonance (SPR), KD and KD ratio to KRAS
GDP-bound NRAS wild-type protein, sequence (P01111 whole entry): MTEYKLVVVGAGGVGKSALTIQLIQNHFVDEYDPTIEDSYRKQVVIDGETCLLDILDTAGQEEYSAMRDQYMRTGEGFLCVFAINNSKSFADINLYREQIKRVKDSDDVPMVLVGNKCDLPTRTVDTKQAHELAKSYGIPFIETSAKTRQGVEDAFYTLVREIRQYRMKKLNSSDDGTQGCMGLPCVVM
In short: (§1)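 Recombinant RAS proteins bearing a biotinylated Avi tag and loaded with GDP served as the captured ligand, recaptured fresh every cycle. Binding responses were referenced to an uncoated surface and a buffer-only blank cycle. Dissociation constants were obtained by 1:1 model fitting at 30°C.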

HRAS wild-type protein = HRAS wild-type protein (Homo sapiens, UniProt P01112); assay: Binding to HRAS by surface plasmon resonance (SPR), KD and KD ratio to KRAS
HRAS wild-type protein, sequence (P01112 whole entry): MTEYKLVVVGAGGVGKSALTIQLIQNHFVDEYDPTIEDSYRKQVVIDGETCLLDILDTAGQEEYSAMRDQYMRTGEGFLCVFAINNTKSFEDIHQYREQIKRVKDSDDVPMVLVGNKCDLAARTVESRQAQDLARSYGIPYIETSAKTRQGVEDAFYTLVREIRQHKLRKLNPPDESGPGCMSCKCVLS
In short: as §1

[3] = test system: human lung cancer strain NCI-H441; type: cell-based
In short: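 Signal came from […] measured per well once the reagent was added. Beforehand, cells were cultured at 37°C and 5% carbon dioxide on a compound series serially diluted in dimethyl sulfoxide.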

[4] = ratio of KD for GDP-bound NRAS wild-type protein to KD for KRAS
[5] = ratio of KD for HRAS wild-type protein to KD for KRAS
[6] = Single Cycle Kinetics, 1:1 binding model
[7] = ratio of KD value for GDP-bound NRAS wild-type protein to KD value for KRAS (SPR)
[8] = ratio of KD value for HRAS wild-type protein to KD value for KRAS (SPR)

| Kd ([1]; Single Cycle Kinetics) | IC50 [3] | Kd ([1]; 1:1 binding model) | Kd [1, 6] | SMILES | NRAS /KRAS [2, 4] | HRAS /KRAS (HRAS wild-type protein; [5]) | NRAS /KRAS [2, 7] | HRAS /KRAS (HRAS wild-type protein; [8]) | NRAS /KRAS ([2]; ratio of the KD value with respect to GDP-bound NRAS wild-type protein to the KD value with respect to KRAS) | HRAS /KRAS (HRAS wild-type protein; ratio of the KD value with respect to HRAS wild-type protein to the KD value with respect to KRAS) |
| --- | --- | --- | --- | --- | --- | --- | --- | --- | --- | --- |
| 1.2 nM | 60.1 nM |  |  | CCO[C@@H]1C[C@H]2C(=O)NC3(CCC3)C(=O)N(C)[C@@H](C(CC)CC)C(=O)N(C)[C@H](C(=O)N3CCOCC3)CC(=O)N(C)[C@@H](CC(C)C)C(=O)N[C@@H]([C@@H](C)CC)C(=O)N(C)CC(=O)N(C)[C@H]3CCCCCN(C3=O)[C@@H](Cc3ccc(C(F)(F)F)cc3)C(=O)N(C)CC(=O)N[C@@H](CCc3cc(F)c(C(F)(F)F)c(F)c3)C(=O)N2C1 [PP0820] | A (a compound having 10 or more and less than 20 is denoted as A) | B (a compound having 3 or more and less than 10 is denoted as B) |  |  |  |  |
|  | 24 nM | 0.75 nM |  | CC[C@H](C)[C@@H]1NC(=O)[C@H](CC(C)C)N(C)C(=O)C[C@@H](C(=O)N2CCOCC2)N(C)C(=O)[C@H](C2CCCC2)N(C)C(=O)C2(CCCC2)NC(=O)[C@@H]2CCCN2C(=O)[C@H](CCc2ccc(C(F)(F)F)c(Cl)c2)NC(=O)CN(C)C(=O)[C@H](Cc2ccc(C)cc2)N(CCC(C)(C)C)C(=O)[C@@H]2CCN2C(=O)[C@H](C)N(C)C1=O [PP0087] ([NMeL]I[NMeA][Aze][X5][Sar][hPhe(3-Cl-4-CF3)]P[Ac5c][NMeGly(cPent)][NMeD]-Morpholide; lactam N-11) | C (A compound having a KD ratio of 0.1 or more and less than 3 is denoted as C) | C (A compound having a KD ratio of 0.1 or more and less than 3 is denoted as C) |  |  |  |  |
|  | 162 nM | 3.3 nM |  | CCO[C@@H]1C[C@H]2C(=O)NC3(CCC3)C(=O)N(C)[C@@H](C3CCCC3)C(=O)N(C)[C@H](C(=O)N(C)C)CC(=O)N(C)[C@@H](CC3CCCC3)C(=O)N[C@@H]([C@@H](C)CC)C(=O)N(C)CC(=O)N(C)[C@H]3C/C=C\CCN(C3=O)[C@@H](Cc3ccc(C)cc3)C(=O)N(C)CC(=O)N[C@@H](CCc3ccc(CC)c(F)c3)C(=O)N2C1 [PP2686] | A (a compound having 10 or more and less than 20 is denoted as A) | A (a compound having 10 or more and less than 20 is denoted as A) |  |  |  |  |
|  | 9.8 nM |  | 0.1 nM | CC[C@H](C)[C@@H]1NC(=O)[C@H](CC)N(C)C(=O)C[C@@H](C(=O)N(C)C)N(C)C(=O)[C@H](C2CCCC2)N(C)C(=O)C2(CC(C)(C)C2)NC(=O)[C@@H]2C[C@@H](C)CN2C(=O)[C@H](CCc2ccc(C(F)(F)F)c(Cl)c2)NC(=O)CN(C)C(=O)[C@H](Cc2ccc(C)cc2)N2CC/C=C\C[C@@H](C2=O)N(C)C(=O)CN(C)C1=O [PP1846] |  |  | A (a compound having 10 or more and less than 20 is denoted as A) | B (a compound having 3 or more and less than 10 is denoted as B) |  |  |
|  | 98.7 nM |  | 0.55 nM | CCO[C@@H]1C[C@H]2C(=O)NC3(CCC3)C(=O)N(C)[C@@H](C3CCCC3)C(=O)N(C)[C@H](C(=O)N3CCOCC3)CC(=O)N(C)[C@@H](CC3CC3)C(=O)N[C@@H]([C@@H](C)CC)C(=O)N(C)CC(=O)N(C)[C@H]3C/C=C\CCN(C3=O)[C@@H](Cc3ccc(F)cc3C)C(=O)N(C)CC(=O)N[C@@H](CCc3cc(F)c(C(F)(F)F)c(F)c3)C(=O)N2C1 [PP1495] |  |  | A (a compound having 10 or more and less than 20 is denoted as A) | B (a compound having 3 or more and less than 10 is denoted as B) |  |  |
|  | 15.8 nM | 0.21 nM |  | CCC[C@H]1C(=O)N[C@@H](C2CCCC2)C(=O)N(C)CC(=O)N(C)[C@H]2C/C=C\CCN(C2=O)[C@@H](Cc2ccc(C)cc2)C(=O)N(C)CC(=O)N[C@@H](CCc2ccc(C(F)(F)F)c(OC)c2)C(=O)N2CC3(CC3)C[C@H]2C(=O)NC2(CC(C)(C)C2)C(=O)N(C)[C@@H](C2CCCC2)C(=O)N(C)[C@H](C(=O)N(C)C)CC(=O)N1C [PP2994] | AA (a compound having 20 or more is denoted as AA) | A (a compound having 10 or more and less than 20 is denoted as A) |  |  |  |  |
|  | 216 nM |  | 2.7 nM | CCO[C@@H]1C[C@H]2C(=O)NC3(CCC3)C(=O)N(C)[C@@H](C3CCCC3)C(=O)N(C)[C@H](C(=O)N(C)C)CC(=O)N(C)[C@@H](C)C(=O)N[C@@H]([C@H](C)CC)C(=O)N(C)CC(=O)N(C)[C@H]3CCCCCN(C3=O)[C@@H](Cc3ccc(C(F)(F)F)cc3)C(=O)N(C)CC(=O)N[C@@H](CCc3cc(F)c(C(F)(F)F)c(F)c3)C(=O)N2C1 [PP0729] |  |  |  |  | B (a compound having 3 or more and less than 10 is denoted as B) | B (a compound having 3 or more and less than 10 is denoted as B) |
